Reference: ChEMBL document CHEMBL1201862, “PubChem BioAssay data set” (2004)
Activity calls are given as the source filed them.

Tests used:
[1] = Luminescence-based cell-based high throughput dose response assay to identify activators of the DAF-12 from the parasite S. stercoralis (ssDAF-12).; assay type: functional
[2] = target: T1, Oxysterols receptor LXR-beta (Homo sapiens, UniProt P55055); experiment: LXR agonists, Gal4 luciferase reporter, dose response, counter-screen for ssDAF-12 agonist project, cell-based, luminescence, HEK293, S. stercoralis campaign (AID 720737); assay type: functional; settings: read-out: IC50 (the source's name)
T1 sequence (P55055 whole entry): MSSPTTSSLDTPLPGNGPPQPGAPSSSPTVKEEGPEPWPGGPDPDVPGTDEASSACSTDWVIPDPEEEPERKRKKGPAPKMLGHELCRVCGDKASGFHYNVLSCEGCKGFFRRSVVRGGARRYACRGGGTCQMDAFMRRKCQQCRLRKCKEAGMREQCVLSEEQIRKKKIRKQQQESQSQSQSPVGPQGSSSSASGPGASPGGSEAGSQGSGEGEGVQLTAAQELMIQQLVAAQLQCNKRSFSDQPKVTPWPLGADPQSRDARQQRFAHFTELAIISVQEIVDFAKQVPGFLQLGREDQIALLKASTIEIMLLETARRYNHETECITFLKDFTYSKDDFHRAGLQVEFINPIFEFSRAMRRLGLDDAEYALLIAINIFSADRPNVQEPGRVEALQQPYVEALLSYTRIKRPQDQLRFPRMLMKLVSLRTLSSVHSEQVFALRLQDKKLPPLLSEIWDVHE

Bcl-2-related protein A1 [3] = target: T2, Bcl-2-related protein A1 (Mus musculus, UniProt Q07440); experiment: Bfl-1 inhibitors blocking BH3 peptide binding, confirmation, biochemical, TR-FRET, mouse Bfl-1 (AID 621);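 note: TR-FRET binding of GST-Bfl-1 to FITC-labelled Bid peptide via terbium antibody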
T2 sequence (Q07440 whole entry): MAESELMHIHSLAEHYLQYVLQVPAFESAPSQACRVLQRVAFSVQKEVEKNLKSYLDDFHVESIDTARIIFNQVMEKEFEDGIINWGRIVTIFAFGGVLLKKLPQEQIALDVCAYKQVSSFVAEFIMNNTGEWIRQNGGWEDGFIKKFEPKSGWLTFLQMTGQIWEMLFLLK

Bcl-2-related protein A1 [4] = target: T2, Bcl-2-related protein A1; experiment: Bfl-1 binding inhibitors, SAR follow-up, biochemical, fluorescence polarization (AID 1070)
[5] = target: T3, Histone-lysine N-methyltransferase NSD2 (Homo sapiens, UniProt O96028); assay type: biochemical
T3 sequence (O96028 whole entry): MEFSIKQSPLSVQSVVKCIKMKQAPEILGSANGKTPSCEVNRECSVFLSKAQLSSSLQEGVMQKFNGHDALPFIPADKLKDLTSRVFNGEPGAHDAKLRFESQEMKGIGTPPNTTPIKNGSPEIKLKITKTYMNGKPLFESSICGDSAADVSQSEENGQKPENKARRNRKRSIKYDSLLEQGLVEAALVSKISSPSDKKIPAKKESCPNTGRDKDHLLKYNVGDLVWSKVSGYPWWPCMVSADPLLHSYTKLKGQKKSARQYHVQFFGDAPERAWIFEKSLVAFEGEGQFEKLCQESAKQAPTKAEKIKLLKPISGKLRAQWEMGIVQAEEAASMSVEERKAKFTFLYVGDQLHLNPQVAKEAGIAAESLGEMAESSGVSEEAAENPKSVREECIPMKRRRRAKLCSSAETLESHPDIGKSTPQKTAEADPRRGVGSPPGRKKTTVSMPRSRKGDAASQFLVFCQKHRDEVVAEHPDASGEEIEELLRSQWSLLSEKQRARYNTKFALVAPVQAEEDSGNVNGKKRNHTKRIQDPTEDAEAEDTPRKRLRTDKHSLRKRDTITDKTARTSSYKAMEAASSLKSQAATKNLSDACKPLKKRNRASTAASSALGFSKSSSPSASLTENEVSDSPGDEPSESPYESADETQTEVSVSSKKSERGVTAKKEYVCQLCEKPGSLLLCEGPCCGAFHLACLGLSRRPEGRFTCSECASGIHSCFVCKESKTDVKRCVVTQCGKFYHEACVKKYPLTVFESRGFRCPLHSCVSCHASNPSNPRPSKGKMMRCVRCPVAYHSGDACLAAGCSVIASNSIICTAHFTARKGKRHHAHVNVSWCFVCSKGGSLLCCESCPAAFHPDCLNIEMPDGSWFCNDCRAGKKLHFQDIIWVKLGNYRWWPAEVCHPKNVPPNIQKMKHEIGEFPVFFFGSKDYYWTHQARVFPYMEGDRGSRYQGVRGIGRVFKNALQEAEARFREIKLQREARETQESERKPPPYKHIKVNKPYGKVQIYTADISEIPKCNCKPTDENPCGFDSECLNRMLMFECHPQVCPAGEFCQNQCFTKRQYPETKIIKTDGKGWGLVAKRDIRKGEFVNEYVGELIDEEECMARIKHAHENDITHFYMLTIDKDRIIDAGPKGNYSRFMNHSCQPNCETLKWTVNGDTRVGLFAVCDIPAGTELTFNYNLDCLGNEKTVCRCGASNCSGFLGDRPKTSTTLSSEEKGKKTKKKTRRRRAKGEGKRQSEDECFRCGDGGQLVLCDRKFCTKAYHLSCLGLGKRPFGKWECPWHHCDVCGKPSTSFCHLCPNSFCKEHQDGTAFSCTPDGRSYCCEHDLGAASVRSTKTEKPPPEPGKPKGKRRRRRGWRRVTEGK

Caspase-6 = target: T4, Caspase-6 (Homo sapiens, UniProt P55212); experiment: human caspase-6 inhibitors, dose response, biochemical, VEID-R110 fluorescence, cherry-pick (AID 720632)
T4 sequence (P55212 whole entry): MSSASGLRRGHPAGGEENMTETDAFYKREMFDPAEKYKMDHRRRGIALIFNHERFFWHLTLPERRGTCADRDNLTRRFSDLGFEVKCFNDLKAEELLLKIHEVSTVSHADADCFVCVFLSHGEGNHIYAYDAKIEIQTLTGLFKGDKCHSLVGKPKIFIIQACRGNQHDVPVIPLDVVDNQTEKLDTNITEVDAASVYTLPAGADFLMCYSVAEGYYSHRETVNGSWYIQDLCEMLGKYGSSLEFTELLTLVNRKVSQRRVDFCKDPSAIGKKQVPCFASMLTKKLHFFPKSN

Cytochrome P450 2C19 = Cytochrome P450 2C19 (Homo sapiens, UniProt P33261); experiment: Cytochrome panel assay with activity outcomes. Panel member name: p450-cyp2c19 Compounds with AC50 equal or less than 10 uM are considered active; assay type: functional; settings: read-out: AC50
Sequence of Cytochrome P450 2C19 (P33261 whole entry): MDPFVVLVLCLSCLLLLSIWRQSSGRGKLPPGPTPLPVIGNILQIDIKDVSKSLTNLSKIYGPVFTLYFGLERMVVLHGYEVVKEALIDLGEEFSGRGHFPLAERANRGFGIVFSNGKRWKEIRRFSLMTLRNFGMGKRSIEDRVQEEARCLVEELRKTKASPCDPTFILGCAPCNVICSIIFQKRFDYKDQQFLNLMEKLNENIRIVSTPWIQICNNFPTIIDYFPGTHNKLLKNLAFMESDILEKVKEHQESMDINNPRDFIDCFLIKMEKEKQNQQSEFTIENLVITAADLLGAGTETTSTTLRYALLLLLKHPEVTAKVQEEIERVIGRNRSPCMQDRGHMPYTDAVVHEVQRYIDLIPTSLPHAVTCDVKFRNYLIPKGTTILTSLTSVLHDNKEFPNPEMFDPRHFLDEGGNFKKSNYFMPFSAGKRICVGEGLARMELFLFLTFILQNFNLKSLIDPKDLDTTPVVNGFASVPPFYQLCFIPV

Cytochrome P450 2C9 = Cytochrome P450 2C9 (Homo sapiens, UniProt P11712)
Sequence of Cytochrome P450 2C9 (P11712 whole entry): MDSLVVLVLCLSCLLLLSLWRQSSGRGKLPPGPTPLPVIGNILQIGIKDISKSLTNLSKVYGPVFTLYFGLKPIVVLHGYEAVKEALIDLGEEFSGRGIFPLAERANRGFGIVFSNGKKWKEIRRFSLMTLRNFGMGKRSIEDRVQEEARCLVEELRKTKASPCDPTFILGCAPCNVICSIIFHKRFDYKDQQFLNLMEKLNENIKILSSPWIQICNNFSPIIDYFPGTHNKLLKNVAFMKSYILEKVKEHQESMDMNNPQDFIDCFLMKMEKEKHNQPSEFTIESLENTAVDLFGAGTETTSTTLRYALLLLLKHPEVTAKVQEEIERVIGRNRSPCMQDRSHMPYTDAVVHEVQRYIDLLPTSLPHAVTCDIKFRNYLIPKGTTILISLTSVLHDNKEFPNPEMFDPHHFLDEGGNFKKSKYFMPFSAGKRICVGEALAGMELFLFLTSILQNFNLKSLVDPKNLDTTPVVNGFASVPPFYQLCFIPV

INS1 = experiment: beta cell apoptosis inhibitors, cytokine rescue, dose response, luminescence, retest (AID 449756); assay type: functional, cell-based; settings: Rattus norvegicus;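 note: cell death triggered by IL-1 beta plus TNF-alpha plus IFN-gamma mixture; protective hits raise ATP signal compared with cytokine alone wells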
[6] = target: T5, COUP transcription factor 2 (Homo sapiens, UniProt P24468); experiment: Luminescence-based cell-based high throughput dose response assay to identify inhibitors of COUP-TFII (NR2F2).; assay type: functional;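 note: HEK293 cells transiently cotransfected with COUP-TFII expression vector and reporter; luciferase reporter luminescence driven by COUP-TFII from the pX2-168 reporter plasmid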
T5 sequence (P24468 whole entry): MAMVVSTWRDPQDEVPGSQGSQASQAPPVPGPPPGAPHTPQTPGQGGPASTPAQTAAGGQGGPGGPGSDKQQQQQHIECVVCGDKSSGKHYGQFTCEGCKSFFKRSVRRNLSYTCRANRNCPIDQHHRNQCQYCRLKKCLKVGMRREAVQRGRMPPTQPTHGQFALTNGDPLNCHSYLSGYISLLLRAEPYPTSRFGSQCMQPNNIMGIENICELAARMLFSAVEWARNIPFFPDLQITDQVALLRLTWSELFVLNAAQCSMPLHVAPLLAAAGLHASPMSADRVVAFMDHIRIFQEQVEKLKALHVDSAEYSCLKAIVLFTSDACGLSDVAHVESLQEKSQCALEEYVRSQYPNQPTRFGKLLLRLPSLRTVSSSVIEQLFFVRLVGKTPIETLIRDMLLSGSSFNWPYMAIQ

Galanin receptor type 3 = target: T6, Galanin receptor type 3 (Homo sapiens, UniProt O60755); experiment: Fluorescence-based cell-based primary high throughput dose response assay to identify antagonists of the Galanin Receptor 3 (GalR3).; assay type: functional
T6 sequence (O60755 whole entry): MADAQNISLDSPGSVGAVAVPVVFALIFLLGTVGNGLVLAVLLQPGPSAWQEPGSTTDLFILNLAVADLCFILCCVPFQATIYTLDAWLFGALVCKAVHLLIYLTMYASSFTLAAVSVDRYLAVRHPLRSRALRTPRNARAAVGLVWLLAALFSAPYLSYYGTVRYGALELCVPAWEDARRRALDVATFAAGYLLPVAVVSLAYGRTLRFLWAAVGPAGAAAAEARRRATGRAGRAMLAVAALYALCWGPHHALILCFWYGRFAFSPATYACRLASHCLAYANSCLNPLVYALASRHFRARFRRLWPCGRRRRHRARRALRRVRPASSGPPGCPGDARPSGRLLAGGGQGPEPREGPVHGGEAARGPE

cells = assay type: functional, cell-based; settings: HEK-CNG
[7] = target: Peroxisome proliferator-activated receptor gamma/Nuclear receptor corepressor 2 (Homo sapiens, UniProt P37231+Q9Y618); experiment: Counterscreen for NR2E3 inverse agonists: TR-FRET-based biochemical high throughput dose response assay to identify inverse agonists of the interaction between peroxisome proliferator-activated receptor gamma (PPARg) and nuclear receptor co-repressor 2 (NCOR2).; assay type: functional
Sequence of Peroxisome proliferator-activated receptor gamma/Nuclear receptor corepressor 2 (P37231 whole entry): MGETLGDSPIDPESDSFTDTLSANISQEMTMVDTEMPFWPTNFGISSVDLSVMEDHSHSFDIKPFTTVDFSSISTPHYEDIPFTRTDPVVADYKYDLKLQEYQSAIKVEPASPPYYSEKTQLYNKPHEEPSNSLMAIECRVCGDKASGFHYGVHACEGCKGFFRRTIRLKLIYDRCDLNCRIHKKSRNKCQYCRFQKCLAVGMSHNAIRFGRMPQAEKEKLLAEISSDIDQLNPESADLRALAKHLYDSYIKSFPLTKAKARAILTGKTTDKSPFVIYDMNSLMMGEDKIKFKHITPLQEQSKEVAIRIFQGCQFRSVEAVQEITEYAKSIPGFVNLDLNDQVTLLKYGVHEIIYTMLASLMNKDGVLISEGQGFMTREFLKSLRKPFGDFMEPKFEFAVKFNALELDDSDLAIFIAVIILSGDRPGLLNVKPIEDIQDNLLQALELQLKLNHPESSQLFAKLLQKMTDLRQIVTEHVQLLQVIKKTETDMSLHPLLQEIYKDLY
Sequence of Peroxisome proliferator-activated receptor gamma/Nuclear receptor corepressor 2 (Q9Y618 whole entry): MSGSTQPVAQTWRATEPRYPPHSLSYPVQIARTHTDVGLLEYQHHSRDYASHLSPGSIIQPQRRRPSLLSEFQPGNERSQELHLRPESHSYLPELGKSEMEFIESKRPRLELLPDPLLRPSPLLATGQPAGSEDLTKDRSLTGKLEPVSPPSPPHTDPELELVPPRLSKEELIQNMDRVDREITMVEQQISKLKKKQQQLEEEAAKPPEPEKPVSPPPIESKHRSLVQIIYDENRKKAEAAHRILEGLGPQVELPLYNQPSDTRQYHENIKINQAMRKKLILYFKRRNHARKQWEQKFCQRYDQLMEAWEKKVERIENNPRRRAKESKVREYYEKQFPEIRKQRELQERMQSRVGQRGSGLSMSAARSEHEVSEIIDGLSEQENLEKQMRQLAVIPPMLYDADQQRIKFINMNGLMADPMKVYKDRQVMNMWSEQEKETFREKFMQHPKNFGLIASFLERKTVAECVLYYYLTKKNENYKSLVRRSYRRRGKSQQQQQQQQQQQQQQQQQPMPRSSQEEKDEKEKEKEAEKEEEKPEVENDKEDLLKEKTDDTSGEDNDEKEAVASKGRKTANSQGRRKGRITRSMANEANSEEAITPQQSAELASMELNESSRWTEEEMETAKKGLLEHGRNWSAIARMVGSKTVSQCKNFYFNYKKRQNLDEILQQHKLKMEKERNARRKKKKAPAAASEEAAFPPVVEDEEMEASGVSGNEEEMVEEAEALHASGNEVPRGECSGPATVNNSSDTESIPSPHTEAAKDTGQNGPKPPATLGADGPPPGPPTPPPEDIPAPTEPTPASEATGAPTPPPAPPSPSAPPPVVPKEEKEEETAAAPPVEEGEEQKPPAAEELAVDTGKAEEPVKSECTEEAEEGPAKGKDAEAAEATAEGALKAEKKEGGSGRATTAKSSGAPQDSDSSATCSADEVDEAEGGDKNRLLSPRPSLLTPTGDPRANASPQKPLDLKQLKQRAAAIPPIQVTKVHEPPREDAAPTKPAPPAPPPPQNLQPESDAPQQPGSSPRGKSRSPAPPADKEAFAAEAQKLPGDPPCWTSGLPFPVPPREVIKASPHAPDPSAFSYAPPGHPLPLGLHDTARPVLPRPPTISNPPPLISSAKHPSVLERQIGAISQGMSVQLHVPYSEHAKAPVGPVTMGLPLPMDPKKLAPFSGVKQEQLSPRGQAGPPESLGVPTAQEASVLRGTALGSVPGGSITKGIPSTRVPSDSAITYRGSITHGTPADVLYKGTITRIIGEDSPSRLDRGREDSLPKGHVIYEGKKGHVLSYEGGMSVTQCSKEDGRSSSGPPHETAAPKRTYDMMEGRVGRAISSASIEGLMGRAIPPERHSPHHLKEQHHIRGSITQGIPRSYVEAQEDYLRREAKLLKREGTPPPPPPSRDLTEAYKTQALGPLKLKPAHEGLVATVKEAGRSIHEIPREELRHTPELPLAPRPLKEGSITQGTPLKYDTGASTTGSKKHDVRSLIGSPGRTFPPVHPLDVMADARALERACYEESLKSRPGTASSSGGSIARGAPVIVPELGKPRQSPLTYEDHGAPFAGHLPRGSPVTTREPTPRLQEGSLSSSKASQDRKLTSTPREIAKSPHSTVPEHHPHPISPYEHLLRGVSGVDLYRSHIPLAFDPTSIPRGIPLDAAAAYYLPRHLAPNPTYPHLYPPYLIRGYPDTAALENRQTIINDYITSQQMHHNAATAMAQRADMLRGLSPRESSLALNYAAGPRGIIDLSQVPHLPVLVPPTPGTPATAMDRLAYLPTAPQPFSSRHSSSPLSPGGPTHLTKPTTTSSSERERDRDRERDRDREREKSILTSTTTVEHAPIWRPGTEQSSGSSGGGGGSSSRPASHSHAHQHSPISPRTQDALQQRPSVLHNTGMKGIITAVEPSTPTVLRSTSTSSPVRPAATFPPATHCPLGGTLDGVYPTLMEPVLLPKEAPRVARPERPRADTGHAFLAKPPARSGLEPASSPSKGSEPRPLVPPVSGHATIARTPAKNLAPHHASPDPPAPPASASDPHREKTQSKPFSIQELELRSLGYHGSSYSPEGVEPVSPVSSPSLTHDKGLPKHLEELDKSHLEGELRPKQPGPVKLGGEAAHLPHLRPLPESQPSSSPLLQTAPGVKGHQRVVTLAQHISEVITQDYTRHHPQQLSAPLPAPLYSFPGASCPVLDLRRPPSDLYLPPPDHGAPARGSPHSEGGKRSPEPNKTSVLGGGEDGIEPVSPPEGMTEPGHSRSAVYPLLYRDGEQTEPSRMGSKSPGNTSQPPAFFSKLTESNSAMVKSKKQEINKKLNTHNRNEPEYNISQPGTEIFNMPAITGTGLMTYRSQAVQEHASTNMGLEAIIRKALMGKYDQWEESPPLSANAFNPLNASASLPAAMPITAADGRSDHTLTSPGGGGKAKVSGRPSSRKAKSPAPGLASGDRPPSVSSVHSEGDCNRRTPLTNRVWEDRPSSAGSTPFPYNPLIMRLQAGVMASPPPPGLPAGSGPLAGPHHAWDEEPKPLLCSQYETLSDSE

[8] = target: Photoreceptor-specific nuclear receptor (Homo sapiens, UniProt Q9Y5X4); experiment: NR2E3 inverse agonists, dose response, biochemical, TR-FRET (AID 463256); assay type: functional
Sequence of Photoreceptor-specific nuclear receptor (Q9Y5X4 whole entry): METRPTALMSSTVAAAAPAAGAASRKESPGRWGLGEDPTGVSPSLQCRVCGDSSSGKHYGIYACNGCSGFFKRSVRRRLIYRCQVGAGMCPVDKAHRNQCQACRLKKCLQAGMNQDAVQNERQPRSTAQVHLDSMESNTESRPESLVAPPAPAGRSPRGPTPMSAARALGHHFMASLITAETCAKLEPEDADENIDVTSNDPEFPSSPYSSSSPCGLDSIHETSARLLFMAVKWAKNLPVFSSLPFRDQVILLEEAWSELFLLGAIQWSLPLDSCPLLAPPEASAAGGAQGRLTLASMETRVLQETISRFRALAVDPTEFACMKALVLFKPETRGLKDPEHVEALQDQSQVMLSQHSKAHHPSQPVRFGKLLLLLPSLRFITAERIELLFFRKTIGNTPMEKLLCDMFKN

[9] = HepG2 cell cytotoxicity, dose response, cytotoxicity control for Shn3 inhibitor project, CellTiter-Glo, cherry-picked (AID 624134); assay type: functional, cell-based
[10] = control 3'UTR Renilla luciferase suppression, dose response, counter-screen for Shn3 inhibitor project, cell-based, Clone20-Shn3RL, cherry-picked (AID 624133); assay type: functional
[11] = Shn3 3'UTR reporter inhibitors, dose response, cell-based, Clone20 osteoblasts, firefly luciferase, cherry-picked (AID 624132); assay type: functional;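 note: firefly luciferase luminescence from reporter carrying the Shn3 3'UTR in osteoblasts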
[12] = HepG2 cell cytotoxicity, dose response, cytotoxicity control, cherry-picked samples (AID 1159577); assay type: functional, cell-based
Paired box protein Pax-8 = Paired box protein Pax-8 (Homo sapiens, UniProt Q06710); experiment: inhibitors of PAX8-driven TPO luciferase reporter, dose response, RMG-I cells, cherry-pick (AID 687027); assay type: functional, cell-based;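 note: luciferase reporter driven by Pax8 target thyroperoxidase promoter measured by SteadyGlo luminescence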
Sequence of Paired box protein Pax-8 (Q06710 whole entry): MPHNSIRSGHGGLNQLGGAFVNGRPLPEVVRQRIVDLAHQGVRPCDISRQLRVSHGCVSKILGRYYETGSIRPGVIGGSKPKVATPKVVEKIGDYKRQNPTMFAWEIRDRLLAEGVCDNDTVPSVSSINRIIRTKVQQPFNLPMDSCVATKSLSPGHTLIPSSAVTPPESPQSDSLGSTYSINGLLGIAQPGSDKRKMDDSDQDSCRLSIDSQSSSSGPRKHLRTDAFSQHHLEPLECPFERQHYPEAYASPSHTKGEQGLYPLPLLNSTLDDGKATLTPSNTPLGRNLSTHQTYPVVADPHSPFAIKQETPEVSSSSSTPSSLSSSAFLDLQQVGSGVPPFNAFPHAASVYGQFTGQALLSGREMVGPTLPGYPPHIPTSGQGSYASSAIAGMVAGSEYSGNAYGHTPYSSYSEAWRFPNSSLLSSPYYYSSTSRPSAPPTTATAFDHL

[13] = P. falciparum Dd2 growth inhibitors, dose response, SYBR Green, cherry-picked samples (AID 1159567); assay type: functional, cell-based
[14] = IGROV1 ovarian cancer cell cytotoxicity, dose response, PAX8 inhibitor project, plate reader, dry powder samples (AID 743043); assay type: functional, cell-based; settings: IGROV-1
[15] = growth inhibition of replicating M. tuberculosis, dose response, counter-screen, dry powder, IC90 (AID 651617); assay type: functional; settings: Mycobacterium tuberculosis
[16] = inhibitors of non-replicating M. tuberculosis, dose response, luciferase, dry powder (AID 651620); assay type: functional; settings: Mycobacterium tuberculosis
[17] = inhibitors of non-replicating M. tuberculosis, dose response, luciferase, dry powder (AID 651619); assay type: functional; settings: Mycobacterium tuberculosis
[18] = P. falciparum ATP4 D1247Y mutant growth inhibitors, dose response, NITD609-resistant line, SYBR Green, dry powder (AID 1159571); assay type: functional, cell-based;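 note: parasites synchronized at ring stage by sorbitol before testing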
[19] = P. falciparum 3D7-ScDHODH growth inhibitors, dose response, SYBR Green, dry powder samples (AID 1159570); assay type: functional, cell-based;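 note: parasite growth measured after 72 hours of compound exposure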
[20] = P. falciparum Dd2 growth inhibitors, dose response, SYBR Green, dry powder samples (AID 1159566); assay type: functional, cell-based;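 note: potency for growth inhibition with lower SYBR green DNA signal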

## Fc1ccc(-c2cnn3c(-c4cccs4)ccnc23)cc1
[1]
  IC50: > 67.5 µM (inactive)
[2]
  EC50: > 67.5 µM (inactive)

## COc1ccc2nc(O)c(-c3nnn(-c4ccc(Cl)nc4)n3)cc2c1
Bcl-2-related protein A1 [3]
  IC50: > 100 µM (not active)
Bcl-2-related protein A1 [4]
  IC50: > 100 µM (not active)

## Nc1cc(S(=O)(=O)O)cc2ccc(S(=O)(=O)O)cc12
[5]
  AC50: > 20 µM (inactive)
Caspase-6
  AC50: 45.1 µM (active)
Cytochrome P450 2C19
  AC50: 7.94 µM (inconclusive)
Cytochrome P450 2C9
  AC50: 7.94 µM (inconclusive)

## Cc1ccc(-n2nnc(-c3cccnc3)n2)cc1
Bcl-2-related protein A1 [3]
  IC50: > 100 µM (not active)
Bcl-2-related protein A1 [4]
  IC50: > 100 µM (not active)

## O=C(O)c1ccccc1SCC(=O)N1CCc2ccccc21
[1]
  IC50: > 67.5 µM (inactive)
[2]
  EC50: > 67.5 µM (inactive)

## COC(=O)C1CCCCN1C(=O)c1cc(COc2cccc3cnccc23)on1 (centres undefined)
INS1
  AC50: 3.68 µM (active)
[6]
  IC50: 7.34 µM (active)
Galanin receptor type 3
  IC50: 1.48 µM (active)
cells
  EC50: > 29.9 µM (inactive)

## O=C(CSc1nnc(-c2cccs2)n1-c1ccccc1)Nc1ccccc1
[7]
  IC50: 11.8 µM (not active)
[8]
  IC50: 5.52 µM (active)

## Fc1ccc(-n2nnc(-c3cc4ccccc4nc3Cl)n2)cc1
Bcl-2-related protein A1 [3]
  IC50: > 100 µM (not active)
Bcl-2-related protein A1 [4]
  IC50: > 100 µM (not active)

## COc1cc2c(cc1OC)C1C(=O)c3ccc4c(c3OC1CO2)CC(C(C)C)O4 (centres undefined)
[9]
  AC50: 0.614 µM (active)
[10]
  AC50: 5.08 µM (active)
[6]
  IC50: 0.519 µM (active)
Galanin receptor type 3
  IC50: 0.0386 µM (active)
cells
  EC50: > 29.9 µM (inactive)
[11]
  AC50: < 0.26 µM (active)

## C[C@H](CO)N1C[C@H](C)[C@@H](CN(C)Cc2ccc(Cl)c(Cl)c2)Oc2ccc(NC(=O)Nc3ccc(C(F)(F)F)cc3)cc2CC1=O
[12]
  AC50: 11.8 µM (active)
Paired box protein Pax-8
  AC50: 6.35 µM (active)
[13]
  AC50: 2.62 µM (active)
[14]
  AC50: 54.3 µM (active)

## Fc1ccc(CSc2nnc(-c3ccccc3)o2)cc1
[15]
  IC90: 250 µM (active)
[16]
  IC90: 4 µM (active)
[17]
  IC90: 4 µM (active)

## C/C=C/c1ccc2c(c1)[C@H]1[C@H](CCN1C(=O)c1ccc(F)cc1)[C@H](CO)N2
[18]
  AC50: 2 µM (active)
[19]
  AC50: 1.96 µM (active)
[20]
  AC50: 2.01 µM (active)
[13]
  AC50: 2.79 µM (active)

## CCN(C[C@@H]1N[C@@H](CO)[C@H]1c1ccc(-c2ccc(F)cc2)cc1)C(=O)CN(C)C
[12]
  AC50: 8.36 µM (active)
[13]
  AC50: 2.05 µM (active)
